Measured values reported in patent US12233053B2, “Adenosine A3 receptor antagonists for treating aging skin and wounds” (ORADIN PHARMACEUTICAL LTD., priority 2021, dated 2025).

Legend:
HaCaT cells = assay: Differentiation markers PAR-2 and Filaggrin in keratinocytes (immunostaining); format: cell-based, human; details: 10 μM, 24 hours
Description: HaCaT cells were grown in DMEM containing 10% FCS for 24 hours. The cells were then treated with 10 μM MRS-1523 for 24 hours, washed with PBS, and fixed with 4% paraformaldehyde for 1 hour. Fixed cells were washed and incubated with the following primary antibodies (Sigma): anti-PAR-2 (Clone SAM11 produced in mouse, reactive to mouse and human) followed by secondary antibodies, anti-mouse antibodies conjugated to FITC, or anti-Filaggrin (FLG; produced in rabbit) followed by secondary antibodies, anti-rabbit antibodies conjugated to Alexa Fluor® 488.

3T3 fibroblast cells [1] = assay: Scratch assay (gap size, cell migration), fibroblasts; format: cell-based; details: 24 hours
Description: (§1) Keratinocyte HaCaT cells or 3T3 fibroblast cells (10^6 cells) were grown in 35 mm petri dishes in DMEM containing 10% FCS overnight. Thereafter, the cell cultures were scratched using 20 μl pipet tip in the middle of the culture plate, the cells were washed three times, and then MRS-1523 (at concentrations of 10 nM to 10 μM in DMEM containing 10% FCS) was added to each scratched plate and incubated with the cells for 24 hours. The gap size in plates of MRS-1523 treated cells was compared to the gap size in plates of control cells which were scratched and incubated for 24 hours in DMEM containing 10% FCS in the absence of MRS-1523. The results are presented as mean±SD. Statistical significance was determined by Student T-test.

B16-F1 melanocytes [2] = tested on: B16-F1 melanocytes
Description: HaCaT cells or 3T3 cells (2×10^4) were incubated in 96-well Elisa plates in DMEM containing 10% fetal calf serum (FCS) in the presence of increasing concentrations of MRS-1523 for 24 hours. Cell viability was then measured using Alamar blue (AB) assay according to the manufacturer's instructions. Briefly, the cells were rinsed with PBS, and 0.2 ml of an AB solution (10% (v/v) of AB dye in DMEM) were added to each well. After incubation of 3 hours, AB fluorescence was quantified at the excitation and emission wavelengths of 540 and 595 nm, respectively, using a Tecan Genios microplate reader. The results are given as mean±SD. Statistical significance was determined by Student T-Test.

B16-F1 melanocytes [3] = assay: Scratch assay (gap size, cell migration), melanocytes; format: cell-based; details: 10 μM, 24 hours, B16-F1, FIG. 4E
Description: FIGS. 4A-E show bar graphs of the gap size in a scratch assay of different cell types in culture. FIGS. 4A-B show bar graphs of the gap size of HaCaT keratinocyte cells (A) and 3T3 fibroblast cells (B) 24 hours after treatment with increasing concentrations of MRS-1523 in the scratch assay. FIGS. 4C-E show bar graphs of the gap size of HaCAT cells (FIG. 4C), 3T3 fibroblasts (FIG. 4D), and B16-F1 melanocytes (FIG. 4E) after 24-hour treatment with 10 μM MRS-1523 in the scratch assay. *p<0.05, **p<0.01 by Student T-test.
as §1

skin explants = assay: Fibroblast and collagen staining of skin explants (H&E, Fontana-Masson); design: species or system human; details: 10 μM, 12 days
Description: Skin explants were treated with MRS-1523 (10 μM) for 12 days. Thereafter, the skin explants were stained with hematoxylin and eosin (H&E; FIGS. 5A and 5C) or with Fontana-Masson (FIGS. 5B and 5D).

3T3 fibroblast cells [4] = tested on: 3T3 fibroblast cells
Description: (§2) Cell viability was then measured using Alamar blue (AB) assay according to the manufacturer's instructions. Briefly, the cells were rinsed with PBS, and 0.2 ml of an AB solution (10% (v/v) of AB dye in DMEM) were added to each well. After incubation of 3 hours, AB fluorescence was quantified at the excitation and emission wavelengths of 540 and 595 nm, respectively, using a Tecan Genios microplate reader. The results are given as mean±SD. Statistical significance was determined by Student T-Test.

3T3 fibroblast cells [5] = assay: Collagen-1 and F-actin expression in fibroblasts (confocal fluorescence); format: cell-based; details: 10 μM, 24 hours
Description: The effect of MRS-1523 on collagen level in fibroblasts in culture was next examined. 3T3-fibroblast cells were grown in DMEM containing 10% FCS for 24 hours, and then were treated with 10 μM MRS-1523 for additional 24 hours. Thereafter, the presence of collagen or F-actin was evaluated as follows: the cells were incubated with rabbit anti-collagen-1 antibodies, and then with Alexa Fluor® 488-conjugated goat anti-rabbit antibodies to detect collagen-1 (green staining). Detection of F-actin was performed by F-actin-Phalloidin-staining (red staining). Cell nuclei were stained with 4′,6-diamidino-2-phenylindole (DAPI; blue staining).

HaCaT keratinocyte cells [6] = assay: Scratch assay (gap size, cell migration), keratinocytes; format: cell-based, human; details: 24 hours
Description: as §1

HaCaT keratinocyte cells [7] = details: 10 μM or lower concentrations, 24 hours
Description: as §2

## CCCOC(=O)c1c(-c2ccccc2)nc(CC)c(C(=O)SCC)c1CCC [MRS-1523, 3-propyl-6-ethyl-5[(ethylthio)carbonyl]-2-phenyl-4-propyl-3-pyridine carboxylate]
HaCaT cells
  expression of Filaggrin (FLG) vs control untreated cells: decrease
  expression of PAR-2 vs control untreated cells: decrease
3T3 fibroblast cells [1]; 0.01 μM-10 μM, 3T3, FIG. 4B
  gap size vs control cells (cell migration): significant reduction in the gap size
3T3 fibroblast cells [1]; 10 μM, 3T3, FIG. 4D
  cell migration: significantly stimulated
B16-F1 melanocytes [2]
  toxic effect on melanocyte cells: did not induce any toxic effect
B16-F1 melanocytes [2]; 24 hours, B16-F1
  melanocyte proliferation: promoted their proliferation
B16-F1 melanocytes [3]
  melanocytes migration: attenuated
Skin explants
  collagen levels in the dermis vs untreated skin explants: increase
  fibroblast levels in the dermis vs untreated skin explants: increase
3T3 fibroblast cells [4]
  toxic effect on fibroblasts: did not induce any toxic effect
3T3 fibroblast cells [4]; 10 μM, 24 hours, 3T3
  fibroblast proliferation: slight but significant increase
3T3 fibroblast cells [5]
  expression of F-actin vs control cells: not increased
  expression of collagen-1 vs control untreated fibroblasts: increased expression
HaCaT keratinocyte cells [6]; 0.01 μM-10 μM, FIG. 4A
  gap size vs control cells (cell migration): significant reduction in the gap size
HaCaT keratinocyte cells [6]; 10 μM, FIG. 4C
  cell migration: significantly stimulated
HaCaT keratinocyte cells [7]
  stimulation of keratinocyte proliferation: 8-16%
